In patent US20200188382A1, “PHARMACEUTICAL COMPOSITION FOR INDUCING PROGRAMMED CELL DEATH IN CANCER CELLS” (KYOTO UNIVERSITY, priority 2016, published 2020):

Columns and labels:
Format in all cases: cell-based
[1] = tested on: Human cervical cancer cell line HeLa; experiment: Antitumor activity: number of living cells by CFSE-DA staining and WST-8 assay; conditions: 5, 10, or 20 μM, 4 days at 37° C., MEM containing 5% FBS, CFSE-DA and WST-8, FIGS. 2 and 3
Protocol: The antitumor effect on cancer cells was confirmed through measurement of the number of living cells using two methods.
Specifically, Compound 1 prepared as described above was added to cancer cells that were to be cultured under the following conditions such that the concentration of Compound 1 was 5, 10, or 20 μM, cancer cells were cultured for 4 days, and then an effect of Compound 1 on cancer cells was confirmed through fluorescence staining of living cells using CFSE-DA (FIG. 2) and WST-8 assays (FIG. 3).
(§1) Cancer cells: Human cervical cancer cell line HeLa
Nutrient sources of culture medium: MEM containing 5% FBS
Culture time after Compound 1 or DMSO was added: 4 days at 37° C.
CFSE: 5- or 6-(N-Succinimidyloxycarbonyl)fluorescein 3′,6′-diacetate

[2] = tested on: Human cervical cancer cell line HeLa; experiment: Programmed cell death under glucose starvation, WST-8 assay; conditions: 16 hours at 37° C., MEM with 0.1% Glucose or 0.1% Galactose (No Glucose) and 5% FBS, FIG. 6
Protocol: It was confirmed that programmed cell death of cancer cells by Compound 1 was facilitated under glucose starvation.
Specifically, the nutrient source of a culture medium used when Compound 1 was applied to cancer cells was set to either glucose (Glc) or galactose (Gal), cancer cells were cultured for 16 hours, and the survival rate of cancer cells was measured using WST-8 assays.
as §1
Culture medium before Compound 1 was added: MEM containing 10% FBS
Culture medium after Compound 1 was added: MEM containing 0.1% Glucose and 5% FBS, or containing 0.1% Galactose and 5% FBS (No Glucose)
Culture time after Compound 1 was added: 16 hours at 37° C.

[3] = tested on: Human cervical cancer cell line HeLa; experiment: Induction of production of NO in cancer cells (DAF-FM DA, flow cytometry); conditions: 10 μM, 10 hours at 37° C., MEM (No Glucose) containing 0.1% Galactose and 5% FBS, FIG. 1
Protocol: The amount of nitric oxide (NO) produced in cancer cells was measured using a nitric oxide detection indicator. Specifically, Compound 1 prepared as described above was added to cancer cells that were to be cultured under the following conditions such that the concentration of Compound 1 was 10 μM, and the cancer cells were cultured for 10 hours, then flow cytometry was performed while the NO detection indicator was in contact therewith, and fluorescence intensity and cell number distribution were measured.
as §1
(§2) Nutrient sources of culture medium: MEM (No Glucose) containing 0.1% Galactose and 5% FBS
Culture time after Compound 1 or DMSO was added: 10 hours at 37° C.
Nitric oxide detection indicator: Diaminofluorescein-FM diacetate (DAF-FM DA)

[4] = tested on: a plurality of cancer cell lines; experiment: Antitumor effect on a plurality of cancer cell lines
[5] = tested on: Human cervical cancer cell line HeLa; experiment: NO dependency of caspase 3 activation (NO scavenger / NO synthesis inhibitor), flow cytometry; conditions: FIG. 5
Protocol: It was confirmed that the activity of Caspase-3 above was NO-dependent, using two types of methods in which an NO scavenger and an NO synthesis inhibitor were used.
That is, first, the NO scavenger (0.2 mM) or NO synthesis inhibitor (4 mM) described above was added to cancer cells that were to be cultured under the following conditions, and the cancer cells were cultured for 1 hour, Compound 1 prepared as described above was added thereto such that the concentration of Compound 1 was 10 μM, the cancer cells were cultured for 15 hours, flow cytometry was then performed while a caspase 3 substrate and a membrane impermeable DNA stain were in contact therewith, and thus two-color dot plots were created.
as §1, §2
Culture time after NO scavenger and NO synthesis inhibitor were added: 1 hour at 37° C.
NO scavenger: Carboxy-PTIO (cPTIO)
NO synthesis inhibitor: L-NAME (NO synthatase inhibitor)
Culture time after Compound 1 or DMSO was added: 15 hours
Caspase 3 substrate: NucView (trademark, Biotium) 488
Membrane impermeable DNA stain: DRAQ7 (trademark, BioStatus)

O=S(=O)(Nc1cc(C(F)(F)F)ccc1N1CC[C@@H]2CCCC[C@H]2C1)c1ccc(F)cc1 [Compound 1]
antitumor effect (survival rate of cancer cells) [1]: antitumor effect of reducing the survival rate of cancer cells | programmed cell death (survival rate) in glucose vs galactose medium [2]: facilitated in a glucose depleted state | production of NO in cells [3]: enhanced | antitumor effect [4]: exhibited an antitumor effect on a plurality of cancer cell lines | NO dependency of induced programmed cell death ([5]; 10 μM, cPTIO or L-NAME): NO-dependent | ratio of cells with DRAQ7 negative and NucView 488 positive ([5]; Compound 1 at 10 μM alone, 15 hours, no glucose/0.1% Galactose, control 7.8%): 36.1% | ratio of cells with DRAQ7 negative and NucView 488 positive under the presence of cPTIO ([5]; Compound 1 at 10 μM, 15 hours, after 1 hour with NO scavenger cPTIO 0.2 mM): 13.9% | ratio of cells with DRAQ7 negative and NucView 488 positive under the presence of L-NAME ([5]; Compound 1 at 10 μM, 15 hours, after 1 hour with NO synthesis inhibitor L-NAME 4 mM): 22.7%
